The results in this text go back to publication PMC11864979, “First-in-class ultralong-target-residence-time p38α inhibitors as a mitosis-targeted therapy for colorectal cancer” (Nature Cancer, 2025).

What all share (assay): selectivity profiling in a panel of 340 wild-type kinases (Reaction Biology Europe)
Common to all, as to type: binding

In experiment [1] the target is T1, 340 wild-type kinases (Homo sapiens, UniProt Q14164).
T1 construct: purchased Reaction Biology Europe
T1 sequence (Q14164 1-716): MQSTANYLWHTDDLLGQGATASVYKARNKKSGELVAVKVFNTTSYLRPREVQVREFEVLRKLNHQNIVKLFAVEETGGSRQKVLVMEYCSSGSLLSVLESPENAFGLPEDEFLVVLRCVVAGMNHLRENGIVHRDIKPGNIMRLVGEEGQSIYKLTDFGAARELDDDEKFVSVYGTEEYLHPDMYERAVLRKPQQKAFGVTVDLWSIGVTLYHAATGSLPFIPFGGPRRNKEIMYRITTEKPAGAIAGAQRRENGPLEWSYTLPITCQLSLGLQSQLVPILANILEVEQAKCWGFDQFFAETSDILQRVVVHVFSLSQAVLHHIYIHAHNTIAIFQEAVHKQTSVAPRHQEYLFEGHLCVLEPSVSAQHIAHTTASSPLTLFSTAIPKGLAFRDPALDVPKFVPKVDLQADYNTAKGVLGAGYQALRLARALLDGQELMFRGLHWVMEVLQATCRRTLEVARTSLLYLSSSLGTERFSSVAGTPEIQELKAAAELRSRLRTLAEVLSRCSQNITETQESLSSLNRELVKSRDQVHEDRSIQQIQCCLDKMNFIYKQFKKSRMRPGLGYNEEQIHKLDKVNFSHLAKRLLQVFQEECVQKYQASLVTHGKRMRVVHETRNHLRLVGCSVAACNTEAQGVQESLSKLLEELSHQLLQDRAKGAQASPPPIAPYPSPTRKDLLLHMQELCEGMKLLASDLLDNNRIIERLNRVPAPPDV

Experiment [2] addresses T2, 340 wild-type kinases (Homo sapiens, UniProt Q16816).
T2 construct: purchased Reaction Biology Europe

In experiment [3] the target is T3, 340 wild-type kinases (Homo sapiens, UniProt Q9UL54).
T3 construct: purchased Reaction Biology Europe
T3 sequence (Q9UL54 1-1235): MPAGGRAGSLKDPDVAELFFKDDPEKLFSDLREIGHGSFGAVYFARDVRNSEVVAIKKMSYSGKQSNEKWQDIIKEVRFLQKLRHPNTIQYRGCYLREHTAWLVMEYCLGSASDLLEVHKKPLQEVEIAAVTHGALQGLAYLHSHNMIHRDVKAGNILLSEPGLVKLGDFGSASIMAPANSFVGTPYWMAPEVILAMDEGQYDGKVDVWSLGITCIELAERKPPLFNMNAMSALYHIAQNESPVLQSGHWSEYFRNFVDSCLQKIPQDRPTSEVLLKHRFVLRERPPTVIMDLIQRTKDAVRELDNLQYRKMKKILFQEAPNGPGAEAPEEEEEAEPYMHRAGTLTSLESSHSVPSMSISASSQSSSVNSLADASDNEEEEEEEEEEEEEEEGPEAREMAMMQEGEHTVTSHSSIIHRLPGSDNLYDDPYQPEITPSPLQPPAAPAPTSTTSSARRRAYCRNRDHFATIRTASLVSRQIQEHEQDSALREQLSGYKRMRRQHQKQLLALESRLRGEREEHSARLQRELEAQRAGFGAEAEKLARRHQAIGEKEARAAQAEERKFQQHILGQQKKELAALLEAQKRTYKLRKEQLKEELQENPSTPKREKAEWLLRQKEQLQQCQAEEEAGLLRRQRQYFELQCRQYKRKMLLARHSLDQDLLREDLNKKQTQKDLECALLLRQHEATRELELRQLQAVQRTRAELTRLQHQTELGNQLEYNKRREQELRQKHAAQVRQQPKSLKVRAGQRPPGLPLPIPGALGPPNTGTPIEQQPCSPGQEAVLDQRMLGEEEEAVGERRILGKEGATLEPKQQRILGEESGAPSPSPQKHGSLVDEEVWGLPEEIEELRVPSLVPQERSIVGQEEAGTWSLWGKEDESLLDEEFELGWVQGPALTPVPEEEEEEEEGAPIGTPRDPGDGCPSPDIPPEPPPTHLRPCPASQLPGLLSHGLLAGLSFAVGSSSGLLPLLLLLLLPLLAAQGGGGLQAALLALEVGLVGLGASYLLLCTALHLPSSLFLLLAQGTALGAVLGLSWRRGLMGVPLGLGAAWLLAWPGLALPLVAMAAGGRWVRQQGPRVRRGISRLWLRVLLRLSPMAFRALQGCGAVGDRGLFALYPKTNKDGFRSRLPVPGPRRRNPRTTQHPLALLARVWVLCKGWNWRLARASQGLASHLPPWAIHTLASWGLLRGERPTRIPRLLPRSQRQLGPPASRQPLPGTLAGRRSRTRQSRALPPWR

For experiment [4], the target named is T4, 340 wild-type kinases (Homo sapiens, UniProt P53667).
T4 construct: purchased Reaction Biology Europe
T4 sequence (P53667 whole entry): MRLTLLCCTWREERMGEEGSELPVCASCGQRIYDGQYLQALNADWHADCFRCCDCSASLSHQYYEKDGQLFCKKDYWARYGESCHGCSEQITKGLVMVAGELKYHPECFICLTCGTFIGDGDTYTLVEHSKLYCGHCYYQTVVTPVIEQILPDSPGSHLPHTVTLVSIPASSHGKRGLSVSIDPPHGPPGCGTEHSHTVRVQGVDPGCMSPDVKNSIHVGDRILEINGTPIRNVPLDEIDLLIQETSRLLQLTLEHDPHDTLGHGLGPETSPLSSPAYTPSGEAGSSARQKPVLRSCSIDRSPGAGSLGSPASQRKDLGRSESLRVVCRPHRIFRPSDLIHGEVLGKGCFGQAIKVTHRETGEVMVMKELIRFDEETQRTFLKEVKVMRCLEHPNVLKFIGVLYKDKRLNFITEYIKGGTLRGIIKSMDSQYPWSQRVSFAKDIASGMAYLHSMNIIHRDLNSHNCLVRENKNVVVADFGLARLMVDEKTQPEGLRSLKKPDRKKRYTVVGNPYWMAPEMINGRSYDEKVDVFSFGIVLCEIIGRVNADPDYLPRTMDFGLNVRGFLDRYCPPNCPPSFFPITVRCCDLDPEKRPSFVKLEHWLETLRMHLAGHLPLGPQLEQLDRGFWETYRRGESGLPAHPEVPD

Experiment [5] addresses T5, 340 wild-type kinases (Homo sapiens, UniProt Q13882).
T5 construct: purchased Reaction Biology Europe

Read-outs that look alike come from different tables or passages of the source.

T5 sequence (Q13882 whole entry): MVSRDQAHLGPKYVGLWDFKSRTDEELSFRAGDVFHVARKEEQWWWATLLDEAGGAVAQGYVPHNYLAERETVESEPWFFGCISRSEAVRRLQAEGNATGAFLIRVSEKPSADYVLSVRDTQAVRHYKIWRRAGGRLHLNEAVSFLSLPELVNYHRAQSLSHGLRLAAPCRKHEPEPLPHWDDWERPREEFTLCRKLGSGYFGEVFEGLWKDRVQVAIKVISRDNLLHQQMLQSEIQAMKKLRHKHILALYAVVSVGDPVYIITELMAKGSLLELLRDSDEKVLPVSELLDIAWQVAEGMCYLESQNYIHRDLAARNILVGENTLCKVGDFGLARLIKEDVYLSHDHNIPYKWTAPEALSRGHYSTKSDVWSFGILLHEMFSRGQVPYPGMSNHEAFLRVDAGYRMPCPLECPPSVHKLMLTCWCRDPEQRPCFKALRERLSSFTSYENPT
T2 sequence (Q16816 whole entry): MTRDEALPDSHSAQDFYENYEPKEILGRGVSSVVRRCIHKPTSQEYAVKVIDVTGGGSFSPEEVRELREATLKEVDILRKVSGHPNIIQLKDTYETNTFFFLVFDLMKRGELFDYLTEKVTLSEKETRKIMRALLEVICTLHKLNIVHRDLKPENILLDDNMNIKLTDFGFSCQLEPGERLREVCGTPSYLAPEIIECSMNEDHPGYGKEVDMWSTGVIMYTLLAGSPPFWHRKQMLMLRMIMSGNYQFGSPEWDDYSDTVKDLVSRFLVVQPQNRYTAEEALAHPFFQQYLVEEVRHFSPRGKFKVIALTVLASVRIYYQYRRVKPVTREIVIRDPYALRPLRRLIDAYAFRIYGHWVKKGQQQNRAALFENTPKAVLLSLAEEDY

Consider `CNC(=O)c1ccc2c(c1)C(=O)c1ccc(Nc3ccc(F)c(NC(=O)C4CC4)c3)cc1CC2` [Compound 2015], for which the remaining activity at 0.2 µM on 340 wild-type kinases [1] (0.2 µM 2015, read-out: IKKepsilon residual activity) stood at 103%; on 340 wild-type kinases [1] (IKKepsilon, 0.2 µM, read-out: residual activity), 103%; at 340 wild-type kinases [2] (0.2 µM 2015, read-out: PHKG1 residual activity), 90.9%; on 340 wild-type kinases [2] (PHKG1, 0.2 µM, read-out: residual activity), 90.9%; on 340 wild-type kinases [3] (0.2 µM 2015, read-out: TAOK2 residual activity), 102%; at 340 wild-type kinases [3] (TAOK2, 0.2 µM, read-out: residual activity) it was 102%. Also, the remaining activity at 0.2 µM came to 102% on 340 wild-type kinases [4] (0.2 µM 2015, read-out: LIMK1 residual activity); 102% at 340 wild-type kinases [4] (LIMK1, 0.2 µM, read-out: residual activity); 100% on 340 wild-type kinases [5] (0.2 µM 2015, read-out: BRK residual activity); 100% at 340 wild-type kinases [5] (BRK, 0.2 µM, read-out: residual activity). The remaining activity at 1 µM at 340 wild-type kinases [1] (1 µM 2015, read-out: IKKepsilon residual activity) turned out to be 92.6%; on 340 wild-type kinases [1] (IKKepsilon, 1 µM, read-out: residual activity), 92.6%; on 340 wild-type kinases [2] (1 µM 2015, read-out: PHKG1 residual activity), 102%; on 340 wild-type kinases [2] (PHKG1, 1 µM, read-out: residual activity), 102%; on 340 wild-type kinases [3] (1 µM 2015, read-out: TAOK2 residual activity), 103%; on 340 wild-type kinases [3] (TAOK2, 1 µM, read-out: residual activity) it was 103%. The remaining activity at 1 µM on 340 wild-type kinases [4] (1 µM 2015, read-out: LIMK1 residual activity) turned out to be 92.9%; at 340 wild-type kinases [4] (LIMK1, 1 µM, read-out: residual activity), 92.9%; on 340 wild-type kinases [5] (1 µM 2015, read-out: BRK residual activity) it was 108%; on 340 wild-type kinases [5] (BRK, 1 µM, read-out: residual activity), 108%.
